Assays:
Edg 5 receptor = target: T1, Edg 5 receptor (Homo sapiens, UniProt O95136); experiment: LPA/S1P-stimulated calcium mobilization assay (FLIPR), HTC cells expressing Edg 5; type: cell-based; conditions: for inhibition of S1P-stimulated calcium increases: FIG. 1 / FIG. 2
T1 construct: expressed in transfected cells; host or cells: HTC (rat hepatoma) cells

Edg-2 receptor = target: T2, Edg-2 receptor (Homo sapiens, UniProt Q92633); experiment: LPA/S1P-stimulated calcium mobilization assay (FLIPR), HTC cells expressing Edg 2; type: cell-based; conditions: for inhibition of the Edg 2 receptor: FIG. 1 / FIG. 2; for IC50: HTC cells expressing Edg 2; for Fold Selective: selectivity for Edg-2 relative to other Edg receptors
T2 construct: expressed in transfected cells
Text: Specific assays for Edg-2 receptor activity are known to those of skill in the art. For example, cells expressing Edg-2 receptors can be contacted with a membrane-permeant calcium sensitive dye such as Fluo-4 AM or a proprietary calcium dye loading kit (e.g., FLIPR Calcium Assay kit, Molecular Devices, Sunnyvale, Calif.). Intracellular calcium is capable of binding to the dye and emitting fluorescent radiation when illuminated at the appropriate wavelength. The cells can thus be illuminated an appropriate wavelength for the dye and any emitting light can be captured by a cooled CCD camera. Changes in fluorescence indicate changes in intracellular calcium resulting from the activation of an Edg-2 receptor. Such changes can be measured advantageously in whole cells in “real-time” (Berridge et al., Nature Reviews 2000, 1:11-21).
LPA receptors such as Edg-2, couple to calcium effector pathways, and result in increases in intracellular calcium following receptor activation (An, 1998, J. Cell. Biochem. Supp., 30-31: 147-157). This biological response lends itself to a very efficient, high-throughput screen using a Fluorescence Imaging Plate Reader (FLIPR; Molecular Devices, Sunnyvale, Calif.). The FLIPR system is a real-time, cell-based assay system with continuous fluorescence detection using a cooled CCD camera. The FLIPR system was used to developing an Edg-2 receptor screen. Rat hepatoma cells stably expressing Edg-2 receptor were plated on 384-well plates and loaded with a calcium dye loading kit (Molecular Devices, Sunnyvale, Calif.) for 1 hour at room temperature. Cells were then placed on the FLIPR^384 (Molecular Devices, Sunnyvale, Calif.) and excited by an argon laser at 488 nm. The data for the entire 384-well plate was updated every second. An integrated robotic pipettor allowed for simultaneous compound addition into each individual well in the plate.

Edg 1 receptor = target: T3, Edg 1 receptor (Homo sapiens, UniProt P21453); experiment: LPA/S1P-stimulated calcium mobilization assay (FLIPR), HTC cells expressing Edg 1; type: cell-based; conditions: for inhibition of S1P-stimulated calcium increases: FIG. 1 / FIG. 2
T3 construct: expressed in transfected cells; host or cells: HTC (rat hepatoma) cells

Edg-4 receptor = target: T4, Edg-4 receptor (Homo sapiens, UniProt Q9HBW0); experiment: LPA/S1P-stimulated calcium mobilization assay (FLIPR), HTC cells expressing Edg 4; type: cell-based; conditions: for inhibition of LPA-stimulated calcium increases: FIG. 1 / FIG. 2
T4 construct: expressed in transfected cells; host or cells: HTC (rat hepatoma) cells

Histamine H1, Central = Histamine H1, Central (Cavia porcellus, UniProt P31389); conditions: significance criteria ≧50% of max stimulation or inhibition; Table 2
Experimental: (§1) In order to test the selectivity of compounds, various radioligand binding assays were performed using numerous non-Edg receptor targets as listed below.
(§2) A radioligand binding assay was performed using adrenergic α1 according to the method of Greengrass and Bremner 1979, Eur. J. Pharmacol. 55:323-326. A radioligand binding assay was performed using adrenergic α2 according to the method of Boyajian and Leslie, 1987, J. Pharmacol. Exp. Ther. 241:1092-1098. A radioligand binding assay was performed using adrenergic β according to the method of Feve et al., 1994, Proc. Natl. Acad. Sci USA 91:5677-5681. A radioligand binding assay was performed using angiotensin AT2 according to the method of Whitebread et al., 1991, Biochem. Biophys. Res. Comm. 181:1365-1371. A radioligand binding assay was performed using calcium channel Type L, dihydropyridine according to the method of Ehlert et al., 1982, Life Sci. 30:2191-2202. A radioligand binding assay was performed using dopamine D2L according to the method of Bunzo et al., 1988, Nature 336:783-787. A radioligand binding assay was performed using endothelin ETA according to the method of Mihara et al., 1994, J. Pharmacol. Exp Ther. 268:1122-1127. A radioligand binding assay was performed using histamine H1 Central according to the method of Hill et al., 1978, J. Neurochem. 31:997-1004. A radioligand binding assay was performed using Muscarinic non-selective, Central according to the method of Luthin and Wolfe, 1984, J. Pharmacol. Exp. Ther. 228:648-655. A radioligand binding assay was performed using serotonin 5-HT1, non-selective according to the method of Middlemiss, 1984, Eur. J. Pharmacol. 101:289-293).

[1] = system: Calcium Channel Type L, Dihydropyridine; conditions: significance criteria ≧50% of max stimulation or inhibition; Table 2
Experimental: as §1, §2

Dopamine D2L = Dopamine D2L (Homo sapiens, UniProt P14416); conditions: significance criteria ≧50% of max stimulation or inhibition; Table 2
Experimental: as §1, §2

[2] = system: Adrenergic α1, non-selective; conditions: significance criteria ≧50% of max stimulation or inhibition; Table 2
Experimental: as §1, §2

Adrenergic β = conditions: significance criteria ≧50% of max stimulation or inhibition; Table 2
Experimental: as §1, §2

Angiotensin AT2 = Angiotensin AT2 (Homo sapiens, UniProt P50052); conditions: significance criteria ≧50% of max stimulation or inhibition; Table 2
Experimental: as §1, §2

Adrenergic α2 = conditions: significance criteria ≧50% of max stimulation or inhibition; Table 2
Experimental: as §1, §2

[3] = system: Muscarinic non-selective, Central; conditions: significance criteria ≧50% of max stimulation or inhibition; Table 2
Experimental: as §1, §2

[4] = system: Serotonin 5-HT1, non-selective; conditions: significance criteria ≧50% of max stimulation or inhibition; Table 2
Experimental: as §1, §2

Endothelin ETA = Endothelin ETA (Homo sapiens, UniProt P25101); conditions: significance criteria ≧50% of max stimulation or inhibition; Table 2
Experimental: as §1, §2

Edg 8 receptor = target: T5, Edg 8 receptor (Homo sapiens, UniProt Q9H228); experiment: LPA/S1P-stimulated calcium mobilization assay (FLIPR), HTC cells expressing Edg 8; type: cell-based; conditions: for inhibition of S1P-stimulated calcium increases: FIG. 1 / FIG. 2
T5 construct: expressed in transfected cells; host or cells: HTC (rat hepatoma) cells

Edg-7 receptor = target: T6, Edg-7 receptor (Homo sapiens, UniProt Q9UBY5); experiment: LPA/S1P-stimulated calcium mobilization assay (FLIPR), HTC cells expressing Edg 7; type: cell-based; conditions: for inhibition of LPA-stimulated calcium increases: FIG. 1 / FIG. 2
T6 construct: expressed in transfected cells; host or cells: HTC (rat hepatoma) cells
T6 sequence (Q9UBY5 1-353): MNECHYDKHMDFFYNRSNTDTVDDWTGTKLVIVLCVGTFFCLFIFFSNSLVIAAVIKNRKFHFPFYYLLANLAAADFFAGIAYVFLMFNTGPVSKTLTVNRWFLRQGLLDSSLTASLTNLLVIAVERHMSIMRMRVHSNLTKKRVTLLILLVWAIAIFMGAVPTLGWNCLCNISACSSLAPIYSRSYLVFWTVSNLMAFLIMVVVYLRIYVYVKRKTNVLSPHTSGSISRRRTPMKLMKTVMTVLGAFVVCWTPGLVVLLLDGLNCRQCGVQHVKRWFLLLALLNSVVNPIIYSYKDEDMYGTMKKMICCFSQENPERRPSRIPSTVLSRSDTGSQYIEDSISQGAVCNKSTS

[5] = system: various targets tested, including other GPCRs, ion channels, and enzymes; experiment: Pharmacology profiling (selectivity assays), panel of non-Edg targets of Table 2; type: binding; conditions: all targets listed in Table 2 (bradykinin, CB2, chemokine, dopamine, histamine, muscarinic, NPY, opiate, prostanoid, purinergic, serotonin, sigma, sodium channel, tachykinin, growth factors etc.)
Edg 3 receptor = target: T7, Edg 3 receptor (Homo sapiens, UniProt Q99500); experiment: LPA/S1P-stimulated calcium mobilization assay (FLIPR), HTC cells expressing Edg 3; type: cell-based; conditions: for inhibition of S1P-stimulated calcium increases: FIG. 1 / FIG. 2
T7 construct: expressed in transfected cells; host or cells: HTC (rat hepatoma) cells

[6] = system: forskolin-stimulated cAMP production; experiment: cAMP assay: LPA inhibition of forskolin-stimulated cAMP production; type: cell-based; conditions: FIG. 4
Text: Because cAMP acts a second messenger in cell signaling, activating protein kinases that in turn phosphorylate enzymes and transcription factors, cAMP concentration is frequently indicative of the activation state of downstream signaling pathways. For GPCRs like the Edg receptors, coupling via a Gαi pathway results in inhibition of adenylyl cyclase activity, the key enzyme involved in breakdown of ATP and formation of cAMP. Thus, assays can be designed to measure inhibition of adenylyl cyclase activity, by first stimulating cAMP formation. One example of a compound, which stimulates cAMP formation is forskolin. Forskolin bypasses the receptor and directly activates adenylyl cyclase. […]
This assay can be performed by any means known to one of skill in the art. […] Following an incubation period, the cells are lysed and the level of cAMP is determined.
The cAMP assay can be performed by any means known to one of skill in the art, for example, by performing a competitive immunoassay. […] Detection can be performed by any appropriate means, including, but not limited to, using a substrate solution and chemiluminescent readout.
Cells were plated in a 96 well format. […] Following a 30-minute incubation period, the cells were lysed and the level of cAMP was determined. […]
Detection was performed using a substrate solution and chemiluminescent readout. […]

[7] = system: immortalized ovarian surface epithelial cells; experiment: LPA-stimulated calcium mobilization in immortalized ovarian surface epithelial cells; type: cell-based; conditions: 10 μM compound, FIG. 3

T7 sequence (Q99500 whole entry): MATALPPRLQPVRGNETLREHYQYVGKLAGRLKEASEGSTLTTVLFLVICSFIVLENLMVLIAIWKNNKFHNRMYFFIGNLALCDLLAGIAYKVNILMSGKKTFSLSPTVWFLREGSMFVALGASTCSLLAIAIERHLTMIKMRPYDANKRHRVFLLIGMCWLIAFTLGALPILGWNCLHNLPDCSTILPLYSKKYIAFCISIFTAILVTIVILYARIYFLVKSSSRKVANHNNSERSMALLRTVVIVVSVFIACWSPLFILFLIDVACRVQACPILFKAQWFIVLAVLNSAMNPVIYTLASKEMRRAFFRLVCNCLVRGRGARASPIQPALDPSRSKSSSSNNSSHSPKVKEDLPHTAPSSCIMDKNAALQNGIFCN
T3 sequence (P21453 whole entry): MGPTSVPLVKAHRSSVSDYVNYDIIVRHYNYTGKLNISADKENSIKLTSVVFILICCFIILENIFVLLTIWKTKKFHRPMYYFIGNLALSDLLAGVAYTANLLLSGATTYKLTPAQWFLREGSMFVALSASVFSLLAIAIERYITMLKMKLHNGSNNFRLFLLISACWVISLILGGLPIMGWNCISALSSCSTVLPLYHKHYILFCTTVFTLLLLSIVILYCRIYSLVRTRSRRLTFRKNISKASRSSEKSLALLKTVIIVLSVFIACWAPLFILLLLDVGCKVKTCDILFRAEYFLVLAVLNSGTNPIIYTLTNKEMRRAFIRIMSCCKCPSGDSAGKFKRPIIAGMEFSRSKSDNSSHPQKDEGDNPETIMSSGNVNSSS
T5 sequence (Q9H228 whole entry): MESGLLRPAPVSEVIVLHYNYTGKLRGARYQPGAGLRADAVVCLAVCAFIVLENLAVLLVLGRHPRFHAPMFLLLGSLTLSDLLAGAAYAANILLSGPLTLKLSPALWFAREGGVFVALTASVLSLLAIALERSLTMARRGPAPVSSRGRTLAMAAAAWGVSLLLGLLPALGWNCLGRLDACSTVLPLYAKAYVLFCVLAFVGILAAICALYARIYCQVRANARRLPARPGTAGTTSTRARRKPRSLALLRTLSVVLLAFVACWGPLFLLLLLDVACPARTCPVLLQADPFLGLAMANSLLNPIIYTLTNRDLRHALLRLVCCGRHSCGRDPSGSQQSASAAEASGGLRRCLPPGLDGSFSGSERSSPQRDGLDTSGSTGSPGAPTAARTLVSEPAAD
T1 sequence (O95136 whole entry): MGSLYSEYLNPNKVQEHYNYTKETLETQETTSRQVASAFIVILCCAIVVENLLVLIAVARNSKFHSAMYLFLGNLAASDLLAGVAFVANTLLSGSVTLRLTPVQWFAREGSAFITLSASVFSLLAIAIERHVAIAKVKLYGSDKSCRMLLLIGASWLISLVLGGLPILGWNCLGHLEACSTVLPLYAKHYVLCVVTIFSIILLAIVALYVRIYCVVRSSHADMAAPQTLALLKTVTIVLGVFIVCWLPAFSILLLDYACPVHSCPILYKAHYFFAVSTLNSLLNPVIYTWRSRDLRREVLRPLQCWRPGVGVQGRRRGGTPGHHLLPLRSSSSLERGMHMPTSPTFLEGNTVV
T2 sequence (Q92633 whole entry): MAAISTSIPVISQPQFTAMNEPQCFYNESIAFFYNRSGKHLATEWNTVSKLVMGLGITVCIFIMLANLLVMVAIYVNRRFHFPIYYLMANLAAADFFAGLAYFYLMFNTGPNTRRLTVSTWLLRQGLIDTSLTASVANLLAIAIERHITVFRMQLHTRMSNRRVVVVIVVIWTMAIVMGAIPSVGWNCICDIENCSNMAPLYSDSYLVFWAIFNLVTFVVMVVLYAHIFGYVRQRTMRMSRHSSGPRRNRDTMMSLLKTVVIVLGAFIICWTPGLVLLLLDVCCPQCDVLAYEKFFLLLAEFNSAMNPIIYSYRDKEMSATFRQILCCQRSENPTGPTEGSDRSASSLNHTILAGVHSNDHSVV
T4 sequence (Q9HBW0 whole entry): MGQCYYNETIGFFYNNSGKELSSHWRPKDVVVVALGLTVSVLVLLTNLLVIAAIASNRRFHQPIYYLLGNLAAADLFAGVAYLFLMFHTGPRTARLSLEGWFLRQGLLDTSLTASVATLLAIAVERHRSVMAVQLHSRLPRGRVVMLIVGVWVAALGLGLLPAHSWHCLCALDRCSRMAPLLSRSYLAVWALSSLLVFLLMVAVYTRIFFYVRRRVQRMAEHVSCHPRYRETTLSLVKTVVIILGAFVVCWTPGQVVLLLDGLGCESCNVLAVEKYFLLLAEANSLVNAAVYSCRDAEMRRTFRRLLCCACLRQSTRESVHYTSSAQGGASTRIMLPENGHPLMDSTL
Chain of Histamine H1, Central (P31389 whole entry): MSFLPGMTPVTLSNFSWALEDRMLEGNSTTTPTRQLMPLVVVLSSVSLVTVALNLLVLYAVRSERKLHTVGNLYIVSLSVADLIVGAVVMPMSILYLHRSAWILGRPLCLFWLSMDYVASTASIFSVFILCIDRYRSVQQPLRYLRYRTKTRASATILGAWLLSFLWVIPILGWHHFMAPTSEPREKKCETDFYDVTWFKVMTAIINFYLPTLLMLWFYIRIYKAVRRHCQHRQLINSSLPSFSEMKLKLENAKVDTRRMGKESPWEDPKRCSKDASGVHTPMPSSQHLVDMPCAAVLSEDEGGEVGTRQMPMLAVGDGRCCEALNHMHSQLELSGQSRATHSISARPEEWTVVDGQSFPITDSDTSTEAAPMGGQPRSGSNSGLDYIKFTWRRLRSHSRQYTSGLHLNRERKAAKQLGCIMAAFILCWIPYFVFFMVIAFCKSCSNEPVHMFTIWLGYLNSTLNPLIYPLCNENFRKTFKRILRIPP
Chain of Angiotensin AT2 (P50052 whole entry): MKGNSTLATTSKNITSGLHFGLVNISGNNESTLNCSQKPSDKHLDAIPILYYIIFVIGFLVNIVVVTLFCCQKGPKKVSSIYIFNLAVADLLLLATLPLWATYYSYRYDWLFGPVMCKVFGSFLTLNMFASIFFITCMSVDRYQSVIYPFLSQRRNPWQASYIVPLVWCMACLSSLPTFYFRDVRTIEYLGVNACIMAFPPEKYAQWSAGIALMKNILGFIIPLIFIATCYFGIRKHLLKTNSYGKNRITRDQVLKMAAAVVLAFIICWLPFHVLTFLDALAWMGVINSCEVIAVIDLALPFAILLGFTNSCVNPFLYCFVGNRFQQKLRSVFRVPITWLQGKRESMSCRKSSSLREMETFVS
Chain of Endothelin ETA (P25101 21-427): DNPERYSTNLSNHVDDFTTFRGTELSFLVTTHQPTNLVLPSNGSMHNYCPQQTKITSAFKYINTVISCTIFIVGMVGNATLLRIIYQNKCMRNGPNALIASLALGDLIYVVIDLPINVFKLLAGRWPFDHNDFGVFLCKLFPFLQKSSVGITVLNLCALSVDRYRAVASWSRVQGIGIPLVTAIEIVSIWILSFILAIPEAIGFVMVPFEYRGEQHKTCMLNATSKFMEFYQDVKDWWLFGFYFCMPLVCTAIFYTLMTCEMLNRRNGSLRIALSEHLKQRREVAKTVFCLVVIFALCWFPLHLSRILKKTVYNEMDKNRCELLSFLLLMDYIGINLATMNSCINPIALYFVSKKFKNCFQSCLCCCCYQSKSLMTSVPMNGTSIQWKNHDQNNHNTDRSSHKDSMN
Chain of Dopamine D2L (P14416 whole entry): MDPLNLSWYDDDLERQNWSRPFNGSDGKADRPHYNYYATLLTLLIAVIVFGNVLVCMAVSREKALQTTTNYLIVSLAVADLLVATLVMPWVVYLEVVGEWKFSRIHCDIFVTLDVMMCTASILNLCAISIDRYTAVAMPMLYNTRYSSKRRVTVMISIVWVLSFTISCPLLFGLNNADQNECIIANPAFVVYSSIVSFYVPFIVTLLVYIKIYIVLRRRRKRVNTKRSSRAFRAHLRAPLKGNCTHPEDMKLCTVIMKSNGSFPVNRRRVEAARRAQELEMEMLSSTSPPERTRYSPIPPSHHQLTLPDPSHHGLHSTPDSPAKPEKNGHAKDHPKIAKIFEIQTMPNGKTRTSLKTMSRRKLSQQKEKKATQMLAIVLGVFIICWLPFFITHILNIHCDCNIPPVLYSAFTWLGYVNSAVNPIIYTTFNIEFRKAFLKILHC

| Structure (SMILES) | IC50 (Edg 5 receptor) | inhibition of S1P-stimulated calcium increases (Edg 5 receptor) | inhibition of the Edg 2 receptor (Edg-2 receptor) | IC50 (Edg-2 receptor) | Fold Selective (Edg-2 receptor) | IC50 (Edg 1 receptor) | inhibition of S1P-stimulated calcium increases (Edg 1 receptor) | IC50 (Edg-4 receptor) | inhibition of LPA-stimulated calcium increases (Edg-4 receptor) | IC50 (Edg 8 receptor) | inhibition of S1P-stimulated calcium increases (Edg 8 receptor) | IC50 (Edg-7 receptor) | inhibition of LPA-stimulated calcium increases (Edg-7 receptor) | activity at various targets tested, including other GPCRs, ion channels, and enzymes [5] | IC50 (Edg 3 receptor) | inhibition of S1P-stimulated calcium increases (Edg 3 receptor) | reversal of the inhibitory effects of LPA on forskolin-stimulated cAMP production [6] | inhibition of LPA-stimulated calcium mobilization [7] | further results |
| --- | --- | --- | --- | --- | --- | --- | --- | --- | --- | --- | --- | --- | --- | --- | --- | --- | --- | --- | --- |
| CCOc1ccccc1N1C(=O)CC(N(O)c2ccccc2)C1=O (centres unmarked) [Compound 101, 1-(2-Ethoxyphenyl)-3-(hydroxyphenylamino)-pyrrolidine-2,5-dione] | > 20 µM | did not inhibit | specifically inhibit | 1630 nM | >12.3 Fold | > 20 µM | did not inhibit | > 20 µM | did not inhibit | > 20 µM | did not inhibit | > 20 µM | did not inhibit | did not demonstrate any significant activity | > 20 µM | did not inhibit | – | – | activity in radioligand binding assay, H1 central (Histamine H1, Central): no significant activity; activity in radioligand binding assay, Calcium Channels Type L, DHP [1]: no significant activity; activity in radioligand binding assay, Dopamine D2L (Dopamine D2L): no significant activity; activity in radioligand binding assay, Adrenergic Alpha 1, non-selective [2]: no significant activity; activity in radioligand binding assay, Adrenergic Beta, non-selective (Adrenergic β): no significant activity; activity in radioligand binding assay, Angiotensin AT2 (Angiotensin AT2): no significant activity; activity in radioligand binding assay, Adrenergic Alpha 2, non-selective (Adrenergic α2): no significant activity; activity in radioligand binding assay, Muscarinic, non-selective, central [3]: no significant activity; activity in radioligand binding assay, Serotonin 5HT1 non-selective [4]: no significant activity; activity in radioligand binding assay, Endothelin ETA (Endothelin ETA): no significant activity |
| CCn1nc(C)c(-c2ccccc2O)c1-c1ccccc1 [Compound 103, 2-(1-Ethyl-3-methyl-5-phenyl-1H-pyrazol-4-yl)-phenol] | > 20 µM | did not inhibit | specifically inhibited | 510 nM | >39.3 Fold | > 20 µM | did not inhibit | > 20 µM | did not inhibit | > 20 µM | did not inhibit | > 20 µM | did not inhibit | did not demonstrate any significant activity | > 20 µM | did not inhibit | reverses the inhibitory effects of LPA | almost completely inhibited | – |
| CCOc1ccccc1N1C(=O)CC(N(O)c2ccc(F)cc2)C1=O (centres unmarked) [Compound 111, 1-(2-Ethoxyphenyl)-3-[(4-fluorophenyl)hydroxylamino]pyrrolidine-2,5-dione] | – | – | – | – | – | – | – | – | – | – | – | – | – | – | – | – | – | – | melting point: 123 to 124 °C |
| O=C(CC(=O)C(F)(F)F)Nc1cc(-c2ccccc2)n[nH]1 [Compound 201, 4,4,4-trifluoro-3-oxo-N-(5-phenyl-2H-pyrazol-3-yl)-butyramide, reference compound] | – | – | – | – | – | – | – | – | – | – | – | – | – | – | – | – | little to no effect | little to no effect | – |

— patent US20050065194A1, “Methods of treating conditions associated with an Edg-2 receptor” (priority 2003, published 2005)
